Test results as given in patent US8362000B2, “Azetidinyl diamides as monoacylglycerol lipase inhibitors” (Janssen Pharmaceutica NV, priority 2009, dated 2013).
Residue numbers refer to the chain shown, from its start. Where two headings read alike, the source gives them in different places.

Assays:
mutant MGL = target: T1, mutant MGL (Homo sapiens, UniProt Q99685, L169S/L176S); assay: MGL ThermoFluor assay - mutant; format: binding
T1 sequence (Q99685 1-303 L169S/L176S): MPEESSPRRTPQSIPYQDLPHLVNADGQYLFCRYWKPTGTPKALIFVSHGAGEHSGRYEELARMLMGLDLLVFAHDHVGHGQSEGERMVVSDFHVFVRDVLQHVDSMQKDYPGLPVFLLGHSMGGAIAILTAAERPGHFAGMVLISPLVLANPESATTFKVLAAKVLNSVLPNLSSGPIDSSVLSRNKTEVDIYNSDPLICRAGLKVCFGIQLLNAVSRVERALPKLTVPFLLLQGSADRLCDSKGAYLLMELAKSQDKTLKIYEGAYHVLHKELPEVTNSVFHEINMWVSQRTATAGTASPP

[1] = target: T2, purified wild type MGL (wt-MGLL 6H-11-313) (Homo sapiens, UniProt Q99685)
T2 sequence (Q99685 1-303): T1 sequence (Q99685 1-303 L169S/L176S) with S169L, S176L

[2] = ThermoFluor concentration-response, read-out: MGL mutant ThermoFluor Kd
[3] = ThermoFluor, compound concentration measured by qNMR, read-out: MGL mutant ThermoFluor qKd (using qNMR conc.)
[4] = compound concentration measured by qNMR, read-out: MGL mutant ThermoFluor qKd (using qNMR conc.)
[5] = ThermoFluor thermal stability binding assay, read-out: MGL mutant ThermoFluor Kd
[6] = ThermoFluor, compound concentration measured by qNMR, read-out: MGL mutant ThermoFluor qKd (μM) (using qNMR conc.)

Row | Compound | Kd (mutant MGL; [2]) [µM] | IC50 [1] [µM] | further results
1 | O=C(c1ccc(Oc2cccc(F)n2)cc1)N1CC(N2CCN(C(=O)c3cscn3)CC2)C1 [Cpd 784] | 2.15 | 1.13 | –
2 | O=C(c1cc2cc(Cl)ccc2o1)N1CCN(C2CN(C(=O)c3nccs3)C2)CC1 [Cpd 785] | 0.5 | 1.19 | –
3 | Cc1cc(Br)ccc1C(=O)N1CC(N2CCN(C(=O)c3nccs3)CC2)C1 [Cpd 786] | – | 1.2 | Kd (mutant MGL; [3]): 0.665 µM
4 | O=C(c1cnc2cc(Cl)ccc2c1)N1CC(N2CCN(C(=O)c3nccs3)CC2)C1 [Cpd 787] | – | 1.21 | Kd (mutant MGL; [3]): 0.247 µM
5 | Cc1cc(C(=O)N2CC(N3CCN(C(=O)c4nccs4)CC3)C2)c(C)n1CC(F)(F)F [Cpd 788] | – | 1.23 | Kd (mutant MGL; [3]): 1.98 µM
6 | Cc1nc2cc(C(=O)N3CC(N4CCN(C(=O)c5nccs5)CC4)C3)ccc2n1CC(F)(F)F [Cpd 789] | – | 1.37 | Kd (mutant MGL; [4]): 0.043 µM
7 | O=C(c1ccc(Sc2cccc(C(F)(F)F)c2)cc1)N1CC(N2CCN(C(=O)C(F)(F)F)CC2)C1 [Cpd 790] | – | 1.42 | Kd (mutant MGL; [4]): 2.49 µM
8 | Cc1nc2c(C)ccc(Cl)c2cc1C(=O)N1CC(N2CCN(C(=O)c3nccs3)CC2)C1 [Cpd 791] | – | 1.45 | Kd (mutant MGL; [3]): 0.402 µM
9 | O=C(c1cc2ccc(Br)cc2[nH]1)N1CC(N2CCN(C(=O)c3nccs3)CC2)C1 [Cpd 792] | – | 1.46 | Kd (mutant MGL; [3]): 0.973 µM
10 | Cc1nc2cc(C(=O)N3CCN(C4CN(C(=O)c5nccs5)C4)CC3)ccc2n1C1CCCCC1 [Cpd 793] | 0.198 | 1.46 | –
11 | Cc1c(C(=O)N2CC(N3CCN(C(=O)c4nccs4)CC3)C2)oc2c(F)cccc12 [Cpd 794] | 2.11 | 1.47 | –
12 | O=C(c1cnc(NCc2ccccc2)s1)N1CC(N2CCN(C(=O)c3nccs3)CC2)C1 [Cpd 795] | 1.1 | 1.5 | –
13 | Cc1c(C(=O)N2CC(N3CCN(C(=O)c4nccs4)CC3)C2)c2ccccc2n1C [Cpd 796] | 0.099 | 1.53 | –
14 | O=C(c1cnc2ccc(Cl)cc2c1)N1CC(N2CCN(C(=O)c3nccs3)CC2)C1 [Cpd 797] | – | 1.6 | Kd (mutant MGL; [3]): 0.489 µM
15 | Cc1nc2cc(C(=O)N3CC(N4CCN(C(=O)c5nccs5)CC4)C3)ccc2n1C1CCC(F)(F)CC1 [Cpd 798] | – | 1.63 | Kd (mutant MGL; [4]): 0.004 µM
16 | O=C(c1cc2ccc(C(F)(F)F)nc2[nH]1)N1CC(N2CCN(C(=O)c3nccs3)CC2)C1 [Cpd 799] | 0.661 | 1.67 | –
17 | O=C(c1ccc2[nH]c(C3CCCCC3)nc2c1)N1CC(N2CCN(C(=O)c3cscn3)CC2)C1 [Cpd 800] | 1.1 | 1.7 | –
18 | O=C(c1cscn1)N1CCN(C2CN(C(=O)c3sc4cc(C(F)(F)F)ccc4c3Cl)C2)C(C(F)(F)F)C1 (stereo not shown) [Cpd 801] | – | 1.71 | Kd (mutant MGL; [5]): 52.5 µM
19 | O=C(c1ccc(Oc2ncc(C(F)(F)F)cc2Cl)cc1)N1CC(N2CCN(C(=O)C(F)(F)F)CC2)C1 [Cpd 802] | – | 1.72 | Kd (mutant MGL; [4]): 1.67 µM
20 | O=C(c1nccs1)N1CC(N2CCN(C(=O)c3cc4cc(C(F)(F)F)ccc4s3)C(c3ccccc3)C2)C1 (stereo not shown) [Cpd 804] | 0.105 | 1.99 | –
21 | O=C(c1cc(Br)cs1)N1CC(N2CCN(C(=O)c3nccs3)CC2)C1 [Cpd 806] | – | 2.05 | Kd (mutant MGL; [6]): 0.989 µM
22 | O=C(c1ccc2c(c1)[S+]([O-])c1ccccc1O2)N1CC(N2CCN(C(=O)c3nccs3)CC2)C1 (stereo not shown) [Cpd 807] | – | 2.08 | Kd (mutant MGL; [4]): 3.65 µM
23 | O=C(c1cscn1)N1CCN(C2CN(C(=O)c3cc4ccc(C(F)(F)F)nc4o3)C2)CC1 [Cpd 808] | 62.5 | 2.08 | –
24 | O=C(c1cscn1)N1CC(N2CCN(C(=O)c3cc4cc(Cl)ccc4o3)CC2)C1 [Cpd 809] | 0.769 | 2.1 | –

Row | Compound | Kd (mutant MGL; [2]) [µM] | IC50 [1] [µM] | further results
25 | O=C(c1ccccn1)N1CCN(C2CN(C(=O)c3sc4cc(F)ccc4c3Cl)C2)CC1 [Cpd 810] | – | 2.14 | Kd (mutant MGL; [5]): 0.29 µM
26 | O=C(c1ccc(Oc2ccccc2Cl)nc1)N1CC(N2CCN(C(=O)c3cscn3)CC2)C1 [Cpd 811] | 3.33 | 2.15 | –
27 | O=C(c1ccc2c(ccn2CC(F)F)c1)N1CC(N2CCN(C(=O)c3cscn3)CC2)C1 [Cpd 813] | – | 2.42 | Kd (mutant MGL; [4]): 0.499 µM
28 | Cc1c(C(=O)N2CCN(C3CN(C(=O)c4nc(C(F)(F)F)cs4)C3)CC2)sc2cc(C(F)(F)F)ccc12 [Cpd 814] | > 31 | 2.43 | –
29 | O=C(c1ccc(N2CCOCC2)cc1)N1CC(N2CCN(C(=O)c3nccs3)CC2)C1 [Cpd 815] | 0.25 | 2.49 | –
30 | CCNC(=O)COc1ccc(C(=O)N2CC(N3CCN(C(=O)c4nccs4)CC3)C2)cc1 [Cpd 816] | – | 2.64 | Kd (mutant MGL; [3]): 2.84 µM
31 | O=C(c1cc2cc(Cl)ccc2o1)N1CC(N2CCN(C(=O)c3nccs3)CC2)C1 [Cpd 818] | 1 | 2.7 | –
32 | O=C(c1ccc2[nH]ncc2c1)N1CC(N2CCN(C(=O)c3nccs3)CC2)C1 [Cpd 820, 5-({3-[4-(1,3-Thiazol-2-ylcarbonyl)piperazin-1-yl]azetidin-1-yl}carbonyl)-1H-indazole] | – | 2.81 | Kd (mutant MGL; [6]): 0.996 µM
33 | Cc1nc2cc(Cl)cc(Cl)c2cc1C(=O)N1CC(N2CCN(C(=O)c3nccs3)CC2)C1 [Cpd 823] | – | 2.97 | Kd (mutant MGL; [3]): 1.25 µM
34 | Cc1c(C(=O)N2CC(N3CCN(C(=O)c4nccs4)CC3)C2)sc2nc3n(c(=O)c12)CCC3 [Cpd 824] | – | 3.12 | Kd (mutant MGL; [3]): 0.074 µM
35 | Cc1c(C(=O)N2CC(N3CCN(C(=O)c4ccc[nH]4)CC3)C2)nc2ccc(Br)cn12 [Cpd 825] | – | 3.15 | Kd (mutant MGL; [3]): 4.86 µM
36 | Cc1nc2cc(Cl)ccc2cc1C(=O)N1CC(N2CCN(C(=O)c3nccs3)CC2)C1 [Cpd 826] | – | 3.29 | Kd (mutant MGL; [3]): 0.663 µM
37 | O=C(c1ccc2[nH]c(C3CCCCC3)nc2c1)N1CCN(C2CN(C(=O)c3nccs3)C2)CC1 [Cpd 827] | 0.5 | 3.31 | –
38 | O=C(c1cscn1)N1CCN(C2CN(C(=O)c3cc4ccc(C(F)(F)F)cc4[nH]3)C2)CC1 [Cpd 828] | 2.63 | 3.73 | –
39 | O=C(c1ccc2c(c1)CCN2)N1CC(N2CCN(C(=O)c3nccs3)CC2)C1 [Cpd 829, 5-({3-[4-(1,3-Thiazol-2-ylcarbonyl)piperazin-1-yl]azetidin-1-yl}carbonyl)-2,3-dihydro-1H-indole] | – | 3.91 | Kd (mutant MGL; [5]): 0.5 µM
40 | O=C(c1cscn1)N1CC(N2CCN(C(=O)c3cc4nc(C(F)(F)F)ccc4[nH]3)CC2)C1 [Cpd 830] | – | 3.94 | Kd (mutant MGL; [3]): 1.96 µM
41 | CC(C)n1c(C(F)(F)F)nc2cc(C(=O)N3CC(N4CCN(C(=O)c5cscn5)CC4)C3)ccc21 [Cpd 831] | 0.27 | 4.1 | –
42 | Cc1nc2cc(C(=O)N3CC(N4CCN(C(=O)c5cscn5)CC4)C3)ccc2n1C1CCCCC1 [Cpd 832] | – | 4.24 | Kd (mutant MGL; [5]): 0.059 µM
43 | O=C(c1sc2cc(C(F)(F)F)ccc2c1Cl)N1CC(N2CCN(C(=O)c3cscn3)C(C(F)(F)F)C2)C1 (stereo not shown) [Cpd 833] | – | 4.56 | Kd (mutant MGL; [6]): 3.33 µM
44 | O=C(c1ccc2c(c1)ncn2C1CCC(F)(F)CC1)N1CC(N2CCN(C(=O)c3cscn3)CC2)C1 [Cpd 834] | – | 4.6 | Kd (mutant MGL; [4]): 0.234 µM
45 | Cc1nc2ccc(Cl)cc2cc1C(=O)N1CC(N2CCN(C(=O)c3nccs3)CC2)C1 [Cpd 835] | – | 4.71 | Kd (mutant MGL; [3]): 2.45 µM
46 | CC(=O)NCCOc1ccc(C(=O)N2CC(N3CCN(C(=O)c4nccs4)CC3)C2)cc1 [Cpd 836] | – | 4.76 | Kd (mutant MGL; [3]): 2.25 µM
47 | O=C(c1ccc(Oc2cc(C(F)(F)F)ccn2)cc1)N1CC(N2CCN(C(=O)C(F)(F)F)CC2)C1 [Cpd 837] | – | 5.04 | Kd (mutant MGL; [4]): 20 µM
